Assay results from patent US7101878B1 (Agouron Pharmaceuticals, Inc., priority 1998, dated 2006).
Each block holds one molecule with its values, some of them ahead of it.

What was measured:
H2 Histamine = H2 Histamine (Homo sapiens, UniProt P25021); assay: Selectivity: H2 Histamine
ET-A = ET-A (Homo sapiens, UniProt P25101); assay: biochemical
N-type Ca2+ Channel = N-type Ca2+ Channel (Homo sapiens, UniProt Q00975); assay: Selectivity: N-type Ca2+ Channel
CCKA = CCKA (Homo sapiens, UniProt P32238); assay: biochemical
MAO-B = MAO-B (Homo sapiens, UniProt P27338); assay: Selectivity: MAO-B
rat mast cells = assay: Selectivity: Basal Histamine Release (rat mast cells); settings: Mast cell, read-out: Basal Histamine Release (rat mast cells) EC50
H3 Histamine = H3 Histamine (Homo sapiens, UniProt Q9Y5N1); assay: Selectivity: H3 Histamine
H3 Histamine, sequence (Q9Y5N1 whole entry): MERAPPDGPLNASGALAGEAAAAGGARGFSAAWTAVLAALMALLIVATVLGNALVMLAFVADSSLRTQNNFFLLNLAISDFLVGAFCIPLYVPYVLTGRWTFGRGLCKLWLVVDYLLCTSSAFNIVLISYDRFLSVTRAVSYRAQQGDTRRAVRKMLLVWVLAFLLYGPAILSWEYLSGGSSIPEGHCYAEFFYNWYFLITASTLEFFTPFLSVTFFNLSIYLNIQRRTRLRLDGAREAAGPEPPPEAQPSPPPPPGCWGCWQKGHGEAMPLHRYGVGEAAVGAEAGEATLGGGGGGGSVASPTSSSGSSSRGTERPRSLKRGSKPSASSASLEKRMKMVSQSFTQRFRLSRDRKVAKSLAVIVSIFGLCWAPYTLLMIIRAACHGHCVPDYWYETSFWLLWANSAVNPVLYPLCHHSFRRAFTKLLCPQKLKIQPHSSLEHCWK

LTD4 = LTD4 (Homo sapiens, UniProt Q9Y271); assay: biochemical
Oxytocin = Oxytocin (Homo sapiens, UniProt P30559); assay: biochemical
NK2 = NK2 (Homo sapiens, UniProt P21452); assay: biochemical
TXA2 = TXA2 (Homo sapiens, UniProt P21731); assay: biochemical
TRH = TRH (Homo sapiens, UniProt P34981); assay: biochemical
TRH, sequence (P34981 whole entry): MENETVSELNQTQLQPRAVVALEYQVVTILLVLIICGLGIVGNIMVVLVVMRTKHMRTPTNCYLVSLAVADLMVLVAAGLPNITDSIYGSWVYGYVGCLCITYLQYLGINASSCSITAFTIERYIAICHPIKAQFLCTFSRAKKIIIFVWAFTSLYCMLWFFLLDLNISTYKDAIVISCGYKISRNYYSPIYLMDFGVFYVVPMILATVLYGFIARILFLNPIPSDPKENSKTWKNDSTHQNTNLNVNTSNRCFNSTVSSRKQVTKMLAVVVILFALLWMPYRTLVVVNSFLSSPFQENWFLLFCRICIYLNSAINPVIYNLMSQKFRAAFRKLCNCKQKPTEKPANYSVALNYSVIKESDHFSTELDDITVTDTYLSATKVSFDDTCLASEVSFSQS

NK3 = NK3 (Homo sapiens, UniProt P29371); assay: biochemical
NK3, sequence (P29371 whole entry): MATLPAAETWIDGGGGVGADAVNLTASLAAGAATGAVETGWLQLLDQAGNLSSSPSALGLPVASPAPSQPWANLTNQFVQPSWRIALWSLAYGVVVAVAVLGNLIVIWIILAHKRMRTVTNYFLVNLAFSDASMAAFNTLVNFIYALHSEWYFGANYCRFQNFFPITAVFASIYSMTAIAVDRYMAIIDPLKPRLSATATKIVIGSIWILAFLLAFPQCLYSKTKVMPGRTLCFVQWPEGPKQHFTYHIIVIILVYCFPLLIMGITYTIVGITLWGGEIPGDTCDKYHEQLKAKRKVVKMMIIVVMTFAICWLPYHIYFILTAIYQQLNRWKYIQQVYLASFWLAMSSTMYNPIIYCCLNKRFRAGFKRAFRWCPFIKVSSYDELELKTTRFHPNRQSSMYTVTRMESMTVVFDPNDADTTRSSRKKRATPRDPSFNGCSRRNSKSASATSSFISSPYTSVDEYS

AchE = AchE (Homo sapiens, UniProt P22303); assay: Selectivity: AchE
AchE, sequence (P22303 32-614): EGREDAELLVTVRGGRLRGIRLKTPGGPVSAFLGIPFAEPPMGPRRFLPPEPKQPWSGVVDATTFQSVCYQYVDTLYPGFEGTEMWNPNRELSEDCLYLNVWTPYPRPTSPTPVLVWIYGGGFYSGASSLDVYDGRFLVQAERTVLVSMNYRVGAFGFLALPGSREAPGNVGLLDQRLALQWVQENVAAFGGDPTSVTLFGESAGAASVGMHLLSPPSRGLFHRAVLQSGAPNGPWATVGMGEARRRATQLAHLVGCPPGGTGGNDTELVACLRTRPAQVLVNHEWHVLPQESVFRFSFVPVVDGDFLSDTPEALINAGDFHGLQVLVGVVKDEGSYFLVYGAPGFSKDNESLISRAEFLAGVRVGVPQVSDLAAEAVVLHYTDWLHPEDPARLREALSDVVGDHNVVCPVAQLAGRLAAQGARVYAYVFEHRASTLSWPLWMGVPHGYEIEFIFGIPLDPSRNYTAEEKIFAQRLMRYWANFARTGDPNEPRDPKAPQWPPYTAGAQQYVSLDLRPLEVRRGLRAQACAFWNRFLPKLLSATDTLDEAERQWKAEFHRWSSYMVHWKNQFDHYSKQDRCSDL

NK1 = NK1 (Homo sapiens, UniProt P25103); assay: biochemical
NK1, sequence (P25103 whole entry): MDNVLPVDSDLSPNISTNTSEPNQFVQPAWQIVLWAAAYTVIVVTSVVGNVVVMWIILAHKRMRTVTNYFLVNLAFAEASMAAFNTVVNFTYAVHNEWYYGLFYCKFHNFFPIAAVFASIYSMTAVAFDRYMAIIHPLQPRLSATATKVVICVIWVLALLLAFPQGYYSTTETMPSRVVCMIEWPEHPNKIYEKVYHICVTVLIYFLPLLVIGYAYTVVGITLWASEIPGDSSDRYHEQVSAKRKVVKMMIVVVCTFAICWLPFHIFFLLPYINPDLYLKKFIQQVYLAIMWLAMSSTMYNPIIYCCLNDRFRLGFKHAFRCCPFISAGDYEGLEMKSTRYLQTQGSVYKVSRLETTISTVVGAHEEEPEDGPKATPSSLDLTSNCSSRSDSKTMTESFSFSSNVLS

Serotonin Transporter = Serotonin Transporter (Homo sapiens, UniProt P31645); assay: Selectivity: Serotonin Transporter
Serotonin Transporter, sequence (P31645 whole entry): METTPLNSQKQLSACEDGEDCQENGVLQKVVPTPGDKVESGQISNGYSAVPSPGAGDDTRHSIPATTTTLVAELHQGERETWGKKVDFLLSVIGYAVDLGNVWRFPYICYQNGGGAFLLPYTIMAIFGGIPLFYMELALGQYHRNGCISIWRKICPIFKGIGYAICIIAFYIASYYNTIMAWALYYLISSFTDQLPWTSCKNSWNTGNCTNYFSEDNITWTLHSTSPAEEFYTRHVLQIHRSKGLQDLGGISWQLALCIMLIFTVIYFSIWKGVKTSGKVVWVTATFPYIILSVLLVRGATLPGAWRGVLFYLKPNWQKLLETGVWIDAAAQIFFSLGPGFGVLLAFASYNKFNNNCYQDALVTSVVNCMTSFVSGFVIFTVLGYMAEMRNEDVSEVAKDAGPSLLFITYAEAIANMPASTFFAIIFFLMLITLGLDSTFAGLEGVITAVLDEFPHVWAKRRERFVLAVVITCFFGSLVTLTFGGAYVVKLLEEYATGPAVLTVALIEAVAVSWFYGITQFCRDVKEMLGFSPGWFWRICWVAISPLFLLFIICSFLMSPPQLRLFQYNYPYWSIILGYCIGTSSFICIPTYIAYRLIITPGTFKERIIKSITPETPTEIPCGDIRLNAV

Bradykinin 2 = Bradykinin 2 (Homo sapiens, UniProt P30411); assay: biochemical
MAO-A = MAO-A (Homo sapiens, UniProt P21397); assay: Selectivity: MAO-A
MAO-A, sequence (P21397 whole entry, species assumed): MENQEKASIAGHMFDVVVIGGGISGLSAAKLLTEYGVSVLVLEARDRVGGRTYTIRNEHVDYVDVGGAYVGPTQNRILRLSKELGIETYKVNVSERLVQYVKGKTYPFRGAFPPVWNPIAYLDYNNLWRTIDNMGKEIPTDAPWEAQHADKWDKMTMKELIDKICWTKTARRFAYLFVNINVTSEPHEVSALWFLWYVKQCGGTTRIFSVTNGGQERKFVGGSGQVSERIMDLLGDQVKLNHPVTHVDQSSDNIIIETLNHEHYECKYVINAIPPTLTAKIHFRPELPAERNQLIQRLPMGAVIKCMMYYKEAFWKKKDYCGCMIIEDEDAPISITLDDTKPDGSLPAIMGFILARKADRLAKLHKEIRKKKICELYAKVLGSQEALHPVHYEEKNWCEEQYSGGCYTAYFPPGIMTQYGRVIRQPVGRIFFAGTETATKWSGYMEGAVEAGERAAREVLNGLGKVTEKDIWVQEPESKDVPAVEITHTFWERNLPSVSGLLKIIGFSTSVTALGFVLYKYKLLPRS

LTB4 = LTB4 (Homo sapiens, UniProt Q15722); assay: biochemical
CYP3A4 Cytochrome P450 = CYP3A4 Cytochrome P450 (Homo sapiens, UniProt P08684)
CYP3A4 Cytochrome P450, sequence (P08684 whole entry): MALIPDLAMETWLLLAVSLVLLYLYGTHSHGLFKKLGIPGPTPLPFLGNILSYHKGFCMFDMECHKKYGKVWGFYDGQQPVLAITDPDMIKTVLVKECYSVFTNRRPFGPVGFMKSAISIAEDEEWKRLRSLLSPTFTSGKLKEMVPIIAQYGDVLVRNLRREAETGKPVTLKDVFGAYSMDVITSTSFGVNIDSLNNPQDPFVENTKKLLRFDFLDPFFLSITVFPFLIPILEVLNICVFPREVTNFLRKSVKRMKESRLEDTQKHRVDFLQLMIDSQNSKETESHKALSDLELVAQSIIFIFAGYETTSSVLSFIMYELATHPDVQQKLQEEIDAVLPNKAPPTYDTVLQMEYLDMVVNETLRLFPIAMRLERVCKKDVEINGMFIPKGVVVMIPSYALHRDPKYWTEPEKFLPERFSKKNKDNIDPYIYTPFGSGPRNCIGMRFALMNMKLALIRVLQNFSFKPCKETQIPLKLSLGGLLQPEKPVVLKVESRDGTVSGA

AT1 Angiotensin = AT1 Angiotensin (Homo sapiens, UniProt P30556); assay: biochemical
rat GnRH receptor = target: T1, rat GnRH receptor (Rattus norvegicus, UniProt P30969); assay: Total inositol phosphates measurement, GGH3 cells; type: cell-based; settings: PI (inositol phosphates)
T1 sequence (P30969 1-327): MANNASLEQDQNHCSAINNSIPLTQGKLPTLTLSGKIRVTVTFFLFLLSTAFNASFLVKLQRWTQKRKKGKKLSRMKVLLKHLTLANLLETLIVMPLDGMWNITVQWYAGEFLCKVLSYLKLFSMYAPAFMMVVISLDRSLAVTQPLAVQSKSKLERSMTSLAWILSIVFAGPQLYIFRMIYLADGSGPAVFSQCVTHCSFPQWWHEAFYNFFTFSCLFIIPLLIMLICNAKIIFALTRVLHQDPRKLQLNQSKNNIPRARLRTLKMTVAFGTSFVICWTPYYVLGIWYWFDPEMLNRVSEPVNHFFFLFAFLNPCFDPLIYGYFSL
Procedure: In another test, accumulation of total inositol phosphates may be measured by formic acid extraction from cells, followed by separation of the phosphates on Dowex columns. Cells are split using trypsin into two 12-well plates and pre-labeled with ^3H-myoinositol ([…]-2 mCi per mL) for 16-18 hours in inositol-free medium. The medium is then aspirated and the cells rinsed with either 1×HBSS, 20 mM HEPES (pH 7.5), or serum-free DMEM, 1×HBSS, 20 mM HEPES (pH 7.5) containing agonist, and 20 mM LiCl is then added and the cells are incubated for the desired time. The medium is aspirated and the reaction stopped by addition of ice-cold 10 mM formic acid, which also serves to extract cellular lipids. […] The columns are then washed with 10 mL of […] sodium formate and 5 mM borax, and total inositol phosphates are eluted with 4.5 mL 1M ammonium formate, 0.1M formic acid.
These cells have been extensively characterized previously (Kaiser et al., 1997). These cells were grown in low glucose Dulbecco's modified Eagle's medium (DMEM) containing: 100U/mL penicillin/streptomycin, 0.6 g/L G418 and 10% beat-inactivated fetal bovine serum
This cell line was provided by Dr. Stuart Sealfon, Mount Sinai Medical School New York, N.Y. These cells were grown in DMEM supplemented with 0.2 g/L G418 100 U/ml penicillin/streptomycin and 10% FBS. […]

ET-A, sequence (P25101 21-427): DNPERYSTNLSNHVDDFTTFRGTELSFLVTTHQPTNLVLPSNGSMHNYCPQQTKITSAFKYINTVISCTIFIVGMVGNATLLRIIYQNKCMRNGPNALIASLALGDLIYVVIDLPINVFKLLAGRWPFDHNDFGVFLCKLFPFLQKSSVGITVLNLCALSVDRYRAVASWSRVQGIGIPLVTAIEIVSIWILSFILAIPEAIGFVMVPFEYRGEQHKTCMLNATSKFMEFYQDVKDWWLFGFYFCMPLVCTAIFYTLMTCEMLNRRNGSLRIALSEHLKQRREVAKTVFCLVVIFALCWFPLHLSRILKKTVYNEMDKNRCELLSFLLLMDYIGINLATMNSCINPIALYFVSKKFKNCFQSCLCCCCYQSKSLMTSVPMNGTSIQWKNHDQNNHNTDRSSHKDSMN
H2 Histamine, sequence (P25021 whole entry): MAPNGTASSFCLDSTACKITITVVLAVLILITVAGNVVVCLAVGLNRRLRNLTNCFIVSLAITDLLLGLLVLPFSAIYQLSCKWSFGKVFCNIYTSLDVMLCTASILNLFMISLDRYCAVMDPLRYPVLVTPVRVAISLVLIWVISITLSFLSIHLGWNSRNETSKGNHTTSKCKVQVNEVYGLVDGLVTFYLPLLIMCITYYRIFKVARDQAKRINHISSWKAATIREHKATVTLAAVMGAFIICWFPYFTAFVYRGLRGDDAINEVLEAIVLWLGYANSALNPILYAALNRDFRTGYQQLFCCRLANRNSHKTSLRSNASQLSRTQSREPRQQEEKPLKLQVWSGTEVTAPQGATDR

Compound: COc1cccc(OC)c1NC(=O)c1ccc(Cc2cc3c(cc2C)C(C)(C)CCC3(C)C)o1 [Compound 20]
Ki (H2 Histamine): ~1 µM
Ki (ET-A): > 1 µM
Ki (N-type Ca2+ Channel): > 1 µM
Ki (CCKA): > 1 µM
Ki (MAO-B): > 1 µM
EC50 (rat mast cells): > 10 µM
Ki (H3 Histamine): > 1 µM
Ki (LTD4): > 1 µM
Ki (Oxytocin): > 1 µM
Ki (NK2): > 1 µM
Ki (TXA2): > 1 µM
Ki (TRH): > 1 µM
Ki (NK3): 1 to 5 µM
Ki (AchE): > 1 µM
Ki (NK1): > 1 µM
Ki (Serotonin Transporter): > 1 µM
Ki (Bradykinin 2): > 1 µM
Ki (MAO-A): > 1 µM
Ki (LTB4): > 1 µM
IC50 (CYP3A4 Cytochrome P450): 1.7 µM
Ki (AT1 Angiotensin): 3 to 5 µM

Kb (rat GnRH receptor): 0.0063 µM
Compound: Cc1cc2c(cc1Cc1ccc(C(=O)NCc3cccc(CNc4ccnc(NC[C@@H]5CCCO5)n4)c3)o1)C(C)(C)CCC2(C)C [Compound 136]
